Where two headings read alike, the source gives them in different places. Starred links: 1 amine or outer side, 2 acyl side, 3 side chain; linkers in the order of their positions; H or OH if unused. Positions of bridges follow the written chain, without caps; N, C: chain ends. Non-standard residues stand in square brackets, D forms with d. Residues, ends and D or L forms follow the SMILES beside them. Chains are numbered I, II in the order given. No end group written: not given here. *: point of attachment. Phe(4-Cl) = N[C@@H](Cc1ccc(Cl)cc1)C(=O)O; d2Nal = N[C@H](Cc1ccc2ccccc2c1)C(=O)O; εLys = N[C@@H](CCCCN[*:1])C(=O)[*:2]; Propyl(3-NH2) = NCCC*; βAla = NCCC(=O)O
How the values were obtained:
[1] = target: T1, somatostatin receptor (Rattus norvegicus, UniProt P30680); test: Inhibition of [125I-Tyr11]somatostatin-14 binding to AR42J rat pancreatic tumor cell membranes; details: [125I-Tyr11]somatostatin-14 0.5 nM, 25 min at 30° C.
T1 construct: endogenous in cells; host or cells: AR42J rat pancreatic tumor cells (membrane preparation)
Protocol: The rat pancreatic tumor cell line AR42J expressing the somatostatin receptor was cultured in Dulbecco's modified essential media (DMEM) supplemented with 10% fetal calf serum (FCS) and 8 mM glutamine in a humidified 5% CO2 atmosphere at 37° C. Harvested cells were homogenized in cold buffer (50 mM Tris-HCl, pH 7.4), and the homogenate was then centrifuged at 39,000 g for 10 min at 4° C. Pellets were washed once with buffer and then resuspended in ice-cold 10 mM Tris-HCl buffer (pH 7.4). Equal aliquots of this cell membrane preparation were then incubated with [^125I-Tyr^11]somatostatin-14 (Amersham, Arlington Heights, Ill.) at a final concentration of 0.5 nM at 750,000 cpm/mL, specific activity 2000Ci/mmol and either a peptide or peptide-rhenium complex of the invention (at a final concentration ranging from […] in 50 mM HEPES buffer, pH 7.4, containing 1% bovine serum albumin, 5 mM MgCl2, 0.02 mg/mL bacitracin, 0.02 mg/mL phenylmethyl-sulfonylfluoride and 200,000 IU Trasylol) for 25 min at 30° C.
After incubation, this membrane mixture was filtered through a polyethyleneimine-washed GC/F filter (Whatman Ltd., Maidstone, England) using a filtration manifold, and the residue remaining on the filter was washed three times with 5 mL cold HEPES buffer. The filter and a sample of the filter washings were then counted on a gamma counter. […]

[2] = test system: fresh human platelet-rich plasma; test: Platelet aggregation inhibition assay (ADP-induced); type: cell-based
Protocol: Platelet aggregation studies were performed essentially as described by Zucker (1989, Methods in Enzymol. 169: 117–133). Briefly, platelet aggregation was assayed with or without putative platelet aggregation inhibitory compounds using fresh human platelet-rich plasma, comprising 300,000 platelets per microlitre. Platelet aggregation was induced by the addition of a solution of adenosine diphosphate to a final concentration of 10 to 15 micromolar, and the extent of platelet aggregation monitored using a Bio/Data aggregometer (Bio/Data Corp., Horsham, Pa.). The concentrations of platelet aggregation inhibitory compounds used were varied from 0.1 to 500 μg/mL. The concentration of inhibitor that reduced the extent of platelet aggregation by 50% (defined as the IC50) was determined from plots of inhibitor concentration versus extent of platelet aggregation. An inhibition curve for peptide RGDS was determined for each batch of platelets tested as a positive control.

[3] = test system: thrombus; test: In vivo imaging of deep vein thrombosis with Tc-99m labeled thrombus targeting peptide, canine model; details: Tc-99m labeled peptide, i.v., dog
Source text: (§1) Mongrel dogs (25–35 lb., fasted overnight) were sedated with a combination of ketamine and aceprozamine intramuscularly and then anesthetized with sodium pentabarbital intravenously. In each animal, an 18-gauge angiocath was inserted in the distal half of the right femoral vein and a 5 mm or 8 mm Dacron®-entwined stainless steel embolization coil (Cook Co., Bloomington Ind.) was placed in the femoral vein at approximately mid-femur. The catheter was removed, the wound sutured and the placement of the coil documented by X-ray. The animals were then allowed to recover overnight.
(§2) One day following coil placement, each animal was re-anesthetized, intravenous saline drips placed in each foreleg and a urinary bladder catheter inserted to collect urine. The animal was placed supine under a gamma camera equipped with a low-energy, all purpose collimator and photopeaked for Tc-99m. […] The second line was maintained for blood collection.
(§3) Gamma camera imaging was started simultaneously with injection. Anterior images over the heart were acquired as a dynamic study (10 sec image acquisitions) over the first 10 min, and then as static images at 1, 2, 3 and 4h post-injection. Anterior images over the legs were acquired for 500,000 counts or 20 min (whichever is shorter), at approximately 10–20 min, and at approximately 1, 2, 3 and 4h post-injection. Leg images were collected with a lead shield placed over the bladder.
(§4) Following collection of the final image, each animal was deeply anesthetized with pentobarbital. Two blood samples were collected using a heparinized syringe followed by a euthanizing dose of saturated potassium chloride solution administered by intercardiac or bolus intravenous injection. […] The thrombus, coil and coil Dacron fibres were then dissected free of the vessel. The thrombus, saline-washed vessel samples, coil and coil Dacron® fibres were separated, and each sample was placed in a pre-weighed test tube. The samples were weighed and counted in a gamma well counter in the Tc-99m channel, along with known fractions of the injected doses.
(§5) Fresh thrombus weight, percent injected dose (% ID)/g in the thrombus and blood obtained just prior to euthanasia and thrombus/blood and thrombus/muscle ratios were determined. From the computer-stored images, thrombus/background ratios were determined by analysis of the counts/pixel measured in regions-of-interest (ROI) drawn over the thrombus and adjacent muscle.

[4] = test system: thrombus; details: dog, in vivo, iv
Source text: as §1, §2, §3, §4, §5

[5] = test system: Escherichia coli infected muscle; set-up: species or system New Zealand White (NZW) rabbits; details: rabbit, in vivo
Protocol: New Zealand White (NZW) rabbits of both sexes and weighing 2–3 kg were innoculated intramuscularly in the left calf with a potent strain of Escherichia coli. After 24 hours, the animals were sedated by intramuscular injection of ketamine and xylazine and then injected with Tc-99m labeled infection targeting agent (2–10mCi, <150 μg). The animals were then positioned supine in the field of view of a gamma cammera (LEAP collimator/photopeaked for Tc-99m) to be imaged. The animals were imaged over the first hour post-injection, and then at approximately 1 hour intervals for the next 3 hours. Animals were allowed to recover between image acquisiitons and re-anesthetized as needed.
Upon completion of the final imaging, each animal was sacrificed with an intravenous overdose of sodium pentobarbital, then dissected to obtain samples of blood and of infected and control tissue. Tissue samples were weighed and counted using a gamma radition counter; a standard amount the injected dose was counted in parallel with each sample as a control.

[6] = test system: CA20948 rat pancreatic tumor; set-up: species or system Lewis rats; details: in vivo, iv
Protocol: In vivo imaging of somatostatin receptors expressed by rat tumor cells was performed essentially as described by Bakker et al. (1991, Life Sciences 49: 1593–1601).
CA20948 rat pancreatic tumor cells, thawed from frozen harvested tumor brei, were implanted intramuscularly into the right hind thigh of 6 week old Lewis rats in a suspension of 0.05 to 0.1 mL/animal. The tumors were allowed to grow to approximately 0.5 to 2 g, harvested, and tumor brei was used to implant a second, naive set of Lewis rats. Passaging in this fashion was repeated to generate successive generations of tumor-bearing animals. The tumor-bearing animals used for the in vivo studies were usually from the third to fifth passage and carried 0.2 to 2 g tumors.
For studies of the specificity of radiotracer localization in the tumors, selected animals were given an subcutaneous SSTR-blocking dose (4 mg/kg) of octreotide 30 minutes prior to injection of the radiotracer.
Third- to fifth-passage CA20948 tumor-bearing Lewis rats were restrained and injected intravenously via the dorsal tail vein with a dose of 0.15–0.20 mCi of a ^99mTc-labeled SSTR targeting imaging agent of the invention (corresponding to 3 to 8 μg peptide in 0.2 to 0.4 mL).
At selected times, the animals were sacrificed by cervical dislocation and selected necropsy was performed. Harvested tissue samples were weighed and counted along with an aliquot of the injected dose in a gamma well-counter.

[7] = ADP 10 to 15 micromolar, human platelet-rich plasma, read-out: IC50

T1 sequence (P30680 whole entry): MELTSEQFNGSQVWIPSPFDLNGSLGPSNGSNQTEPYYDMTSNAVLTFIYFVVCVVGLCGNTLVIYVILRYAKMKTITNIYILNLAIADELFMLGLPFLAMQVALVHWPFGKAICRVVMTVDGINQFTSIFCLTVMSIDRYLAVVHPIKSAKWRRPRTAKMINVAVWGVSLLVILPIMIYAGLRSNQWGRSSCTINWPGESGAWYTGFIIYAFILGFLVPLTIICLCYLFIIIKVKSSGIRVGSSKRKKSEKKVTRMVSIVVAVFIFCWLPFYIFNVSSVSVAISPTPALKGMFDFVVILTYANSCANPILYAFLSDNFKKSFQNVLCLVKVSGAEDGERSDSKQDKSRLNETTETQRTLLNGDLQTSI

## CC(=O)N[C@H](Cc1ccc2ccccc2c1)C(=O)N[C@@H](Cc1ccc(Cl)cc1)C(=O)N[C@@H](Cc1ccc(O)cc1)C(=O)N[C@H](Cc1c[nH]c2ccccc12)C(=O)N[C@@H](CCCCN)C(=O)N[C@H](C(=O)N[C@@H](Cc1ccccc1)C(=O)N[C@H](C(=O)NCCCC[C@H](N)C(=O)NCC(=O)N[C@@H](CS)C(=O)N[C@@H](CCCCN)C(=O)N[C@@H](CCCCN)C(N)=O)[C@@H](C)O)[C@@H](C)O [Peptide P548, acetyl.NalD.Cpa.YWDKTFT(ε-K)GCKK.amide] (Ac-[d2Nal][Phe(4-Cl)]Y[dW]KTFT[εLys]GCKK-NH2)
[1]
  Ki: 3.6 nM

## NCCCSC[C@@H]1NC(=O)[C@@H](Cc2ccc(O)cc2)NC(=O)CSC[C@@H](C(=O)NCC(=O)NCCCC[C@H](NC(=O)CNC(=O)[C@@H]2CSCC(=O)N[C@H](Cc3ccc(O)cc3)C(=O)N[C@@H](CSCCCN)C(=O)NCC(=O)N[C@@H](CC(=O)O)C(=O)N2)C(=O)NCC(=O)NCCCC[C@H](NC(=O)CNC(=O)[C@H](CCCCNC(=O)CNC(=O)[C@@H]2CSCC(=O)N[C@H](Cc3ccc(O)cc3)C(=O)N[C@@H](CSCCCN)C(=O)NCC(=O)N[C@@H](CC(=O)O)C(=O)N2)NC(=O)CNC(=O)[C@@H]2CSCC(=O)N[C@H](Cc3ccc(O)cc3)C(=O)N[C@@H](CSCCCN)C(=O)NCC(=O)N[C@@H](CC(=O)O)C(=O)N2)C(=O)NCCCC[C@H](N)C(=O)NCC(=O)N[C@@H](CS)C(=O)NCC(N)=O)NC(=O)[C@H](CC(=O)O)NC(=O)CNC1=O [Peptide P681, {(CH2CO.YDApc.GDCG)2KG}2K(ε-K)GCG.amide] (I: {CH2CO}-[dY]C(Propyl(3-NH2))GDCGKGK[εLys]GCG-NH2 / II: {CH2CO}-[dY]C(Propyl(3-NH2))GDCGKG / III: {CH2CO}-[dY]C(Propyl(3-NH2))GDCG / IV: {CH2CO}-[dY]C(Propyl(3-NH2))GDCG; amide I:7-IV:C, I:9-II:C, II:7-III:C (inferred); thioether I:N-I:5, II:N-II:5, III:N-III:5, IV:N-IV:5 (inferred))
[2]
  IC50: 110 nM

## NCCCC[C@H](NC(=O)[C@@H]1CSCC(=O)N[C@H](Cc2ccc(O)cc2)C(=O)N[C@@H](CSCCCN)C(=O)NCC(=O)N[C@@H](CC(=O)O)C(=O)N1)C(=O)NCC(=O)NCC(=O)NCCCC[C@H](NC(=O)CNC(=O)CNC(=O)[C@H](CCCCN)NC(=O)[C@@H]1CSCC(=O)N[C@H](Cc2ccc(O)cc2)C(=O)N[C@@H](CSCCCN)C(=O)NCC(=O)N[C@@H](CC(=O)O)C(=O)N1)C(=O)NCCCC[C@H](N)C(=O)NCC(=O)N[C@@H](CS)C(=O)NCCC(N)=O [Peptide P687, (CH2CO.YD.Apc.GDCKGG)2K(ε-K)GC.β-Ala.amide] (I: {CH2CO}-[dY]C(Propyl(3-NH2))GDCKGGK[εLys]GC[βAla]-NH2 / II: {CH2CO}-[dY]C(Propyl(3-NH2))GDCKGG; amide I:9-II:C (inferred); thioether I:N-I:5, II:N-II:5 (inferred))
[2]
  IC50: 79 nM

## CC(=O)NCSC[C@H](NC(=O)CNC(=O)CNC(=O)[C@@H]1CSCC(=O)N[C@H](Cc2ccc(O)cc2)C(=O)N[C@@H](CSCCCN)C(=O)NCC(=O)N[C@@H](CC(=O)O)C(=O)N1)C(=O)NCC(=O)N[C@@H](CSCNC(C)=O)C(=O)NCC(=O)NCC(=O)N[C@@H](CSCC(=O)NCCCC[C@H](NC(=O)CSC[C@H](NC(=O)CNC(=O)CNC(=O)[C@H](CSCNC(C)=O)NC(=O)CNC(=O)[C@H](CSCNC(C)=O)NC(=O)CNC(=O)CNC(=O)[C@@H]1CSCC(=O)N[C@H](Cc2ccc(O)cc2)C(=O)N[C@@H](CSCCCN)C(=O)NCC(=O)N[C@@H](CC(=O)O)C(=O)N1)C(N)=O)C(=O)NCCCC[C@H](NC(=O)[C@H](CCCCNC(=O)CSC[C@H](NC(=O)CNC(=O)CNC(=O)[C@H](CSCNC(C)=O)NC(=O)CNC(=O)[C@H](CSCNC(C)=O)NC(=O)CNC(=O)CNC(=O)[C@@H]1CSCC(=O)N[C@H](Cc2ccc(O)cc2)C(=O)N[C@@H](CSCCCN)C(=O)NCC(=O)N[C@@H](CC(=O)O)C(=O)N1)C(N)=O)NC(=O)CSC[C@H](NC(=O)CNC(=O)CNC(=O)[C@H](CSCNC(C)=O)NC(=O)CNC(=O)[C@H](CSCNC(C)=O)NC(=O)CNC(=O)CNC(=O)[C@@H]1CSCC(=O)N[C@H](Cc2ccc(O)cc2)C(=O)N[C@@H](CSCCCN)C(=O)NCC(=O)N[C@@H](CC(=O)O)C(=O)N1)C(N)=O)C(=O)NCCCC[C@H](N)C(=O)NCC(=O)N[C@@H](CS)C(=O)NCC(N)=O)C(N)=O [Peptide P688, {(CH2CO.YD.Apc. GDCGGCAcmGCAcmGGCamide)2(CH2CO)2K}2.K(ε-K)GCG.amide]
[2]; [7]
  IC50: 26 nM

## (CH2CO.YD.Apc.GDCGGCAcmGCAcmGGC.amide)2(CH2CO)2K(ε-K)GC.amide [Peptide P667]
[2]; [7]
  IC50: 110 nM
[3]; after the final image (4h post-injection)
  % ID/g Thrombus: 0.006 % ID/g
[3]; ratio
  Thrombus/Blood: 5.9
  Thrombus/Muscle: 30

## (CH2CO.YDApc.GDCKGCG.amide)2(CH2CO)2K(ε-K)GC.amide [Peptide P748]
[2]; [7]
  IC50: 29 nM
[4]
  Thrombus/Blood: 5.8
  Thrombus/Muscle: 90

## AKCGGGFDYWDKTFT.amide (AKCGGGFDYWDKTFT-NH2) [Peptide P398]
[1]
  Ki: 1.4 nM

## GGCGLF [Peptide P477]
[5]
  Blood (% ID/g): 0.0140 % ID/g
  Control Muscle (% ID/g): 0.0012 % ID/g
  Infected Muscle (% ID/g): 0.0100 % ID/g
  Ratio of Infected/Blood: 0.72
  Ratio of Infected/Control: 8.4

## GGCSIPPEVKFNKPFVYLI.amide (GGCSIPPEVKFNKPFVYLI-NH2) [Peptide P472]
[5]
  Blood (% ID/g): 0.0076 % ID/g
  Control Muscle (% ID/g): 0.0009 % ID/g
  Infected Muscle (% ID/g): 0.0079 % ID/g
  Ratio of Infected/Blood: 1.0
  Ratio of Infected/Control: 8.8

## cyclo(N-methyl)FYWDKV.Hcy.(CH2CO.(β-Dap)KCK.amide) [Peptide P829]
[6]
  Tumor/Blood: 13

## cyclo(N-methyl)FYWDKV.Hcy.(CH2CO.(β-Dap)KCR.amide) [Peptide P832]
[6]
  Tumor/Blood: 13

## cyclo(N-methyl)FYWDKV.Hcy.(CH2CO.(δ-Dap)GCK.amide) [Peptide P772]
[6]
  Tumor/Blood: 7.2

## cyclo(N-methyl)FYWDKV.Hcy.(CH2CO.(δ-Orn)GCK.amide) [Peptide P773]
[6]; 1.5 h
  % ID/g Blood: 0.13 % ID/g
  % ID/g Tumor: 1.9 % ID/g
  Tumor/Blood: 15

## cyclo(N-methyl)FYWDKV.Hcy.(CH2CO.(ε-K)GCKK.amide) [Peptide P723]
[6]
  Tumor/Blood: 5.4

Source: patent publication US7238340B1, “Monoamine, diamide, thiol-containing metal chelating agents” (CIS bio international, priority 1991, dated 2007)
